By IC50 is commonly meant the concentration needed to halve the response being measured. A lower IC50 goes with greater potency in that assay.

SMILES strings stand for the structures.

In the test the target is aryl hydrocarbon receptor (AhR) (Homo sapiens, UniProt P35869). Kind of test: [3H]TCDD radioligand competition in whole T47D cells. The format is cell-based. Background: Displacement assays read how much labelled ligand stays bound in the presence of the test substance.
aryl hydrocarbon receptor (AhR), sequence (P35869 11-848): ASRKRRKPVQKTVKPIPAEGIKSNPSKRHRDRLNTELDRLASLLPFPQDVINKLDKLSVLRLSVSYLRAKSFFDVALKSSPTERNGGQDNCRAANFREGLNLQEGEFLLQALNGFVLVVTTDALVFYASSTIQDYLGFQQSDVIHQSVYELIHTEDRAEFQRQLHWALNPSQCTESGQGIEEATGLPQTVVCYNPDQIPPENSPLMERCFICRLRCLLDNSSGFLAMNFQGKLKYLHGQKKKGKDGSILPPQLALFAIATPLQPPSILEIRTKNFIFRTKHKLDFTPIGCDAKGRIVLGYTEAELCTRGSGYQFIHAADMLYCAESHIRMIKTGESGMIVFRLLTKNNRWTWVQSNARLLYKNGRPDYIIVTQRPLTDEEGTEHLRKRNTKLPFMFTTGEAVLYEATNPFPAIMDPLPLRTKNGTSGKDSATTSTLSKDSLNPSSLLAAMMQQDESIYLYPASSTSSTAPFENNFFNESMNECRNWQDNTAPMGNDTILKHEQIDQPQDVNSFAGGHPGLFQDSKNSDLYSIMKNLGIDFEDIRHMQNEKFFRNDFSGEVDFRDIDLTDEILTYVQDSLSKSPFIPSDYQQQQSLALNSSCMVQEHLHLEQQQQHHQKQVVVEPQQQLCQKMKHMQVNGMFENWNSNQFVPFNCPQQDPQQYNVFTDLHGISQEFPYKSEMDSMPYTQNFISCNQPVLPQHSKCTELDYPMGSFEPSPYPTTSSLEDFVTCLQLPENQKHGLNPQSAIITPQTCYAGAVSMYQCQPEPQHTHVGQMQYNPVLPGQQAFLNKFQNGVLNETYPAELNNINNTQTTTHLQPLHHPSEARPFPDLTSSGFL

Compound `O=C(O)/C=C/c1ccc(O)c(O)c1` [caffeic acid] yielded a half-maximal inhibitory concentration (IC50) of 158 nM. This counts as sub-micromolar.

The values above are taken from PMC400651 (Breast Cancer Research, 2003).
